Experimental findings from patent US20210299079A1, “MONOMETHYL FUMARATE-CARRIER CONJUGATES AND METHODS OF THEIR USE” (Flagship Pioneering Innovations V, Inc., priority 2018, published 2021) are described below.

SMILES strings stand for the structures.

Test [1] has as its system IL-6. The test is described as follows: Cytokine Release from Human PBMCs: IL-6. Type of test: cell-based. Particulars: LPS, 24 hours, Concentration 100 μM. Here is the method:
(§1) Human donor blood (8 mL) was collected in sodium citrate CPT tubes and centrifuged at 1,600×g for 20 minutes at room temperature. Buffy coat containing PBMCs was collected and transferred to a 50 mL conical tube containing 30 mL of RPMI-1640 medium at room temperature (supplemented with penicillin-streptomycin). PBMCs samples were centrifuged at 400×g for 10 minutes at 10° C. The pelleted PBMCs were washed twice in 10 ml of RPMI-1640 medium (supplemented with penicillin-streptomycin), then resuspended in RPMI-1640 medium (supplemented with penicillin-streptomycin, fetal bovine serum, and L-Glutamine). PBMCs were filtered through a 70 micron mesh to remove any cellular debris. […] PBMCs in a 96-well plate were rested for 30 minutes in a 37° C., 5% CO2 incubator, then subsequently treated with 10 μI of indicated compound. After 2 hours 10 μL of LPS (0111:64) 1 mg/mL was added to test wells. After 24 hours of incubation at 37° C., 5% CO2, 100 μL of cell supernatant was collected and transferred to a 96-well plate (non-tissue treated, flat bottom). The plate was centrifuged at 350×g for 5 minutes at room temperature, and then the clear supernatant transferred to a new 96-well plate (non-tissue treated, flat bottom). The remaining cells were tested for viability using CellTiter-Glo® Luminescent Cell Viability Assay (Promega). The supernatant was analyzed for TNFα, IL-6 and IL-1β (kit […] Systems), using Luminex Immunoassay Technology (MAGPIX System).

Test [2] has as its system TNFα. The test can be described thus: Cytokine Release from Human PBMCs: TNFα. Type of test: cell-based. Particulars: LPS, 24 hours, Concentration 100 μM. The protocol:
as §1

Test [3] deals with Caco-2 colonocytes. The test is described as follows: Human Caco-2 Barrier Integrity Assay, Study 1. Particulars: Caco-2, + cytokines (TNFα, IFNγ, IL-1β), 48 hours. Type of test: cell-based. A digest of the protocol:
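Caco-2 cells grown in supplemented DMEM were seeded on collagen I-coated transwell membranes, with medium in both apical and basolateral compartments. TEER was read again after 48 hours, and viability assessed by MTS-type CellTiter 96 AQueous One assay.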

For test [4], the system named is IL-1β. The test can be described thus: Cytokine Release from Human PBMCs: IL-1β. It is filed as cell-based. As to conditions: LPS, 24 hours, Concentration 100 μM. The protocol:
as §1

In test [5] the test system is experimental autoimmune encephalomyelitis (EAE). The test can be described thus: In Vivo EAE Model of Multiple Sclerosis. On the set-up: species or system C57BL/6J mice. The protocol:
For experimental autoimmune encephalomyelitis (EAE) study, 8- to 11-week-old C57BL/6J mice were anesthetized and subcutaneously injected with […] and […]. Pertussis toxin (200 ng/mouse) was applied i.p. on days 0. Daily clinical evaluation was performed via a 5-point scale, and the clinical progression was observed over 28 days (FIG. 2A). […] At the end of the study, flow cytometry analysis was performed on the spleen (n=8 per group). […] Statistical analysis was performed with GraphPad Prism (GraphPad Software). Unpaired t test was used to assess significance between the control (Vehicle) and each treatment group. For experimental autoimmune encephalomyelitis (EAE) studies, 8- to 11-week old C57BL/6J mice were anesthetized and subcutaneously injected with […] and […]. Pertussis toxin (200 ng/mouse) was applied intraperitoneally on day 0. Daily clinical evaluation as performed using a 5-point scale and the clinical progression was observed over 28 days (FIGS. 2C and 2D).

Consider `CCC(=O)O` [propionate], for which the “IL6 % DMSO control” value in test [1] is listed as “+ ((+) 50% > <90% DMSO)”. The “TNFα % of DMSO control” value in test [2] was “+ ((+) 50% > <90% DMSO)”. Further, the “% Change in TEER from DMSO” value in test [3] (1 mM) is “+ (125% > <150%: +)”; in test [3] (3 mM) it was “++ (150% > <200%: ++)”. In addition, in test [4], the “IL1β % DMSO control” value is “+ ((+) 50% > <90% DMSO)”. Besides, the “EAE score (5-point scale) compared to control (vehicle only)” value in test [5] (Study 1, 200 mM in drinking water, 28 days) was “lower EAE scores”. Besides, the “TH17 cell (CD3+)/regulatory T cells (CD3+, Foxp3+) ratio” value in test [5] (Study 1, spleen flow cytometry at end of study, 200 mM in drinking water, vs vehicle, P<0.05) is given as “significantly reduced”.
